{"source": "patent US20230058316A1", "about": "“PEGYLATED IGE-DEPENDENT HISTAMINE-RELEASING FACTOR (HRF)-BINDING PEPTIDE AND USE THEREOF” (EWHA UNIVERSITY - INDUSTRY COLLABORATION FOUNDATION, priority 2020, published 2023)", "key": {"[1]": {"tested_on": "eosinophils in bronchoalveolar lavage fluid", "experiment": "Eosinophil increase in bronchoalveolar lavage fluid, ovalbumin-induced bronchial asthma and rhinitis mouse model", "type": "in vivo", "conditions": "1 mg/kg IP, 8 times daily for 8 days, FIG. 9", "protocol": "(§1) A bronchial asthma and rhinitis animal model was prepared by the following method. An ovalbumin solution was prepared by dissolving ovalbumin in an aluminum hydroxide solution (1 mg/ml) 28 and 14 days before the start of inducing bronchial asthma and rhinitis, and 200 μl of the solution was intraperitoneally injected into each mouse for sensitization. After 14 days of final sensitization, 20 μl of saline/PBS (normal control; NC) or 20 μl of 10 mg/mL ovalbumin solution (positive control; PC) was instilled into the nasal cavity of each lightly anesthetized mouse 4 times every other day for 8 days to induce bronchial asthma and rhinitis.\nAfter anesthetizing the mouse by injecting a mixture of zoletil (250 mg/kg) and rompun (50 mg/kg) intraperitoneally, a 20-gauge catheter was inserted into the trachea by puncturing the trachea with a knife, and 0.6 mL of PBS at a time was injected-collected three times, and the collection rate was adjusted to 80%. The collected bronchoalveolar lavage fluid was centrifuged at 4° C., 3000 rpm for 10 minutes, and the cell precipitate was resuspended in 0.1 mL of PBS. 20 μL of the suspension was analyzed for the composition of blood cells using a fully automatic hematology analyzer (HEMAVET 950 FS, Drew Scientific, Inc.)."}, "[2]": {"experiment": "Pharmacokinetic analysis in ICR mice", "type": "in vivo", "conditions": "IV, 10 mg/kg", "protocol": "The dTBP2 of Preparative Examples 4 and Example 3 was added to a solution prepared in DMSO:PEG400:DW=5:55:40, and this was administered at the concentration of 5 mL/kg. Blood samples were taken at 0.083, 0.25, 0.5, 1, 2, 4, and 8 hours post injection. The blood was centrifuged at 4° C., 3000 rpm for 10 minutes, to which cold acetonitrile containing internal standard was added in an amount 4 times the plasma component, and then deproteinization was carried out. After centrifugation again at 4° C., 13000 rpm for 10 minutes, the supernatant was collected and analyzed by Agilent 6460 LC-MS/MS. Pharmacokinetic analysis was performed with Phoenix WinNonlin (Pharsight ver 6.4, USA) using a non-compartmental analysis model."}, "[3]": {"tested_on": "ovalbumin-specific IgE", "experiment": "Ovalbumin-specific IgE secretion in mouse plasma, ovalbumin-induced bronchial asthma and rhinitis mouse model", "type": "in vivo", "conditions": "1 mg/kg IP", "protocol": "as §1\nOvalbumin is an allergy-causing substance mainly contained in egg whites. […] After completion of the experiment, the mouse was anesthetized by injecting a mixture of zoletil (250 mg/kg) and rompun (50 mg/kg) intraperitoneally, and the chest was opened. 0.8 mL blood was collected by puncture of the heart with a 26 gauge 1 mL syringe coated with heparin. The collected blood was centrifuged at 4° C., 3000 rpm for 10 minutes to obtain plasma components. The amount of ovalbumin-specific IgE in the blood serum obtained through the above process was measured and quantified by enzyme immunosorbent detection method using mouse OVA specific IgE kit (Biolegend, USA).\n(§2) Next, in order to confirm whether there is an effect of inhibiting ovalbumin-specific IgE secretion in plasma even when administered in a small number of times, the dTBP2 of Preparative Example 4 and Example 3 was administered to the mouse model of Example 4-1 through intraperitoneal injection once in 4 days for a total of 2 times for 8 days inducing bronchial asthma and rhinitis. The amount of ovalbumin-specific IgE secretion was measured and quantified by the enzyme immunosorbent detection method in the same manner.\n(§3) In addition, the dTBP2 of Preparative Example 4 and Example 3 was administered to the mouse model of Example 4-1 through intraperitoneal injection once on the 1st day of 8 days inducing bronchial asthma and rhinitis. The amount of ovalbumin-specific IgE secretion was measured and quantified by the enzyme immunosorbent detection method in the same manner.\nThe amount of ovalbumin-specific IgE secretion was measured and quantified by the enzyme immunosorbent detection method in the same manner."}, "[4]": {"tested_on": "IL-5", "experiment": "IL-5 secretion in bronchoalveolar lavage fluid, ovalbumin-induced bronchial asthma and rhinitis mouse model", "type": "in vivo", "conditions": "1 mg/kg IP", "protocol": "as §1\nAfter the end of the experiment, the amount of IL-5 in the supernatant obtained by centrifuging bronchoalveolar lavage fluid was measured and quantified by enzyme immunosorbent detection using mouse IL-5 ELISA kit (Biolegend, USA).\nas §2, with “inhibiting IL-5” for “inhibiting ovalbumin-specific IgE”, “secretion” for “secretion in plasma”, “of IL-5” for “of ovalbumin-specific IgE secretion”\nas §3, with “IL-5” for “ovalbumin-specific IgE secretion”\nThe amount of IL-5 was measured and quantified by the enzyme immunosorbent detection method in the same manner."}, "[5]": {"tested_on": "IL-4", "experiment": "IL-4 secretion in bronchoalveolar lavage fluid, ovalbumin-induced bronchial asthma and rhinitis mouse model", "type": "in vivo", "conditions": "1 mg/kg IP", "protocol": "as §1\nAfter the end of the experiment, the amount of IL-4 in the supernatant obtained by centrifuging bronchoalveolar lavage fluid was measured and quantified by enzyme immunosorbent detection using mouse IL-4 ELISA kit (Biolegend, USA).\nas §2, with “inhibiting IL-4” for “inhibiting ovalbumin-specific IgE”, “secretion” for “secretion in plasma”, “of IL-4” for “of ovalbumin-specific IgE secretion”\nas §3, with “IL-4” for “ovalbumin-specific IgE secretion”\nThe amount of IL-4 was measured and quantified by the enzyme immunosorbent detection method in the same manner."}, "[6]": {"conditions": "microsomes; for Human (%) remaining after reaction: 0.5 h", "method": "Upon completion of the reaction, cold acetonitrile containing internal standard was added, and then deproteinization was carried out. The reactant was centrifuged at 4° C., 4000 rpm for 15 minutes, and the supernatant was analyzed by LC-MS/MS. The system was verified with buspirone, a reference material."}}, "note": "Like-named read-outs stand apart in the source and are kept apart here. Where no end group is shown, it is not given here.", "data": [{"substance": "Example 3: dTBP2 (WYVYPSM) conjugated at the N-terminal with methoxy polyethylene glycol propionaldehyde (10 kDa) ({mPEG propionaldehyde 10 kDa}-WYVYPSM)", "values": [{"measurement": "reduction of increased eosinophils vs positive control", "setting": "[1]", "result": "about 55%"}, {"measurement": "AUClast", "setting": "[2]", "result": 2.83, "unit": "µg·h/mL"}, {"measurement": "AUC∞", "setting": "[2]", "result": 3.15, "unit": "µg·h/mL"}, {"measurement": "CL (clearance from plasma)", "setting": "[2]", "result": 3.29, "unit": "L/h/kg"}, {"measurement": "T1/2 (half life)", "setting": "[2]", "result": 3.18, "unit": "h"}, {"measurement": "Vss (steady-state volume of distribution)", "setting": "[2]", "result": 7.37, "unit": "L/kg"}, {"measurement": "increase of half-life compared to the dTBP2 of Preparative Example 4", "setting": "[2]", "result": "about 1.6 times"}, {"measurement": "initial plasma concentration relative to the dTBP2 of Preparative Example 4", "setting": "[2]", "result": "about 1000 times"}, {"measurement": "stability in plasma", "setting": "[2]; FIG. 26, versus Preparative Example 4", "result": "improved"}, {"measurement": "inhibitory ability on ovalbumin-specific IgE secretion compared with dTBP2 of Preparative Example 4", "setting": "[3]; FIGS. 23 and 24", "result": "better"}, {"measurement": "inhibiting ovalbumin-specific IgE secretion", "setting": "[3]; once in 4 days for a total of 2 times (FIG. 23) and once on the 1st day (FIG. 24)", "result": "effective"}, {"measurement": "ovalbumin-specific IgE secretion inhibitory effect", "setting": "[3]; once on the 5th day of 8 days, FIG. 25", "result": "inhibitory effect"}, {"measurement": "inhibiting ovalbumin-specific IgE secretion in plasma (in words)", "setting": "[3]; plasma, 8 times daily for 8 days", "result": "very effective"}, {"measurement": "reduction of ovalbumin-specific IgE secretion", "setting": "[3]; plasma, 8 times daily for 8 days, FIG. 22", "result": "about 50%"}, {"measurement": "reduction of IL-5 secretion", "setting": "[4]; 8 times daily for 8 days, FIG. 10", "result": "about 50%"}, {"measurement": "inhibiting IL-5 secretion", "setting": "[4]; once in 4 days for a total of 2 times (FIG. 11) and once on the 1st day (FIG. 12)", "result": "effective"}, {"measurement": "IL-5 secretion inhibitory effect", "setting": "[4]; once on the 5th day of 8 days, FIG. 13", "result": "effectively inhibited"}, {"measurement": "reduction of IL-4 secretion", "setting": "[5]; 8 times daily for 8 days, FIG. 14", "result": "about 60%"}, {"measurement": "inhibiting IL-4 secretion", "setting": "[5]; once in 4 days for a total of 2 times (FIG. 15) and once on the 1st day (FIG. 16)", "result": "effective"}, {"measurement": "IL-4 secretion inhibitory effect", "setting": "[5]; once on the 5th day of 8 days, FIG. 17", "result": "effectively inhibited"}, {"measurement": "half-life according to the evaluation criteria", "setting": "[6]; human", "result": "1 to 3", "unit": "h"}, {"measurement": "Human (%) remaining after reaction", "setting": "[6]", "result": "more than 75%"}, {"measurement": "Human (%) remaining after reaction", "setting": "[6]; pH 7.4", "result": 75.77, "unit": "%"}]}]}
